Measurements published in ChEMBL document CHEMBL1201862, “PubChem BioAssay data set” (2004).
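96-well plates; 48 h exposure; 5 concentrations. Endpoints by linear interpolation between flanking doses. Not reached: highest tested concentration assigned. The concentration for 50% growth inhibition is given as GI50.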 The source made the active and inactive calls. Rule as the data show it: active = GI50 up to about 1.1 µM and inactive = higher.

Tests used:
Experiment in all cases: DTP human tumour cell line panel, 48 h
MDA-N = test system: MDA-N
COLO 205 = test system: COLO 205
SNB-19 = test system: SNB-19
HCT-116 = test system: HCT-116
SR = test system: SR
A549 = test system: A549
UO-31 = test system: UO-31
DU-145 = test system: DU-145
OVCAR-5 = test system: OVCAR-5
K562 = test system: K562
T47D = test system: T47D
NCI-H23 = test system: NCI-H23
KM12 = test system: KM12
PC-3 = test system: PC-3
HOP-92 = test system: HOP-92
UACC-62 = test system: UACC-62
OVCAR-4 = test system: OVCAR-4
ACHN = test system: ACHN
MOLT-4 = test system: MOLT-4
BT-549 = test system: BT-549

Measured: GI50

CC1=NN(C(=O)c2ccncc2)C(=O)C1
inactive: MDA-N > 100 µM | COLO 205 > 100 µM | SNB-19 > 100 µM | HCT-116 > 100 µM | SR > 100 µM | A549 > 100 µM | UO-31 > 100 µM | DU-145 > 100 µM | OVCAR-5 > 100 µM | K562 > 100 µM | T47D > 100 µM | NCI-H23 > 100 µM | KM12 > 100 µM | PC-3 > 100 µM | HOP-92 > 100 µM | UACC-62 > 100 µM | OVCAR-4 > 100 µM | ACHN > 100 µM | MOLT-4 89.9 µM | BT-549 > 100 µM

O=[N+]([O-])c1ccc(-[n+]2ccc3ccccc3c2)c([N+](=O)[O-])c1
inactive: MDA-N 2.33 µM | COLO 205 2.55 µM | SNB-19 18.1 µM | HCT-116 2.35 µM | SR 3.42 µM | A549 16.4 µM | UO-31 5.02 µM | DU-145 14.6 µM | OVCAR-5 11.7 µM | K562 1.55 µM | T47D 2.01 µM | NCI-H23 2.43 µM | KM12 12.3 µM | PC-3 3.93 µM | HOP-92 2.48 µM | UACC-62 2.28 µM | OVCAR-4 1.56 µM | ACHN 2.02 µM | MOLT-4 2.83 µM | BT-549 4.83 µM

Cc1[nH]c2ccccc2c1/C=N/c1ccc(Oc2ccccc2)cc1
inactive: MDA-N 17.2 µM | COLO 205 15.9 µM | SNB-19 18 µM | HCT-116 16.6 µM | SR 19.1 µM | A549 17.1 µM | UO-31 12 µM | DU-145 16.1 µM | OVCAR-5 16.3 µM | K562 23.2 µM | T47D 18.5 µM | NCI-H23 16 µM | KM12 16.2 µM | PC-3 13.8 µM | HOP-92 12.7 µM | UACC-62 17.9 µM | OVCAR-4 14.9 µM | ACHN 16.3 µM | MOLT-4 13.8 µM | BT-549 14.8 µM

O=C(O)c1ccc(C(=O)O)c(C(=O)Nc2ccc3c(c2)C(=O)c2ccccc2-3)c1
inactive: MDA-N > 100 µM | COLO 205 > 100 µM | SNB-19 > 100 µM | HCT-116 > 100 µM | SR > 100 µM | A549 > 100 µM | UO-31 > 100 µM | DU-145 > 100 µM | OVCAR-5 > 100 µM | K562 > 100 µM | T47D > 100 µM | NCI-H23 > 100 µM | KM12 > 100 µM | PC-3 > 100 µM | HOP-92 > 100 µM | UACC-62 > 100 µM | OVCAR-4 > 100 µM | ACHN > 100 µM | MOLT-4 > 100 µM | BT-549 > 100 µM

O=C(CSc1ncccn1)N/N=C/c1ccccc1OCc1ccccc1
inactive: MDA-N 10.8 µM | COLO 205 19.2 µM | SNB-19 45.3 µM | HCT-116 23 µM | SR 4.23 µM | A549 71.8 µM | UO-31 44.5 µM | DU-145 29.8 µM | OVCAR-5 > 100 µM | K562 20.1 µM | T47D 24.8 µM | NCI-H23 32.3 µM | KM12 28.4 µM | PC-3 28.8 µM | HOP-92 16.9 µM | UACC-62 20.9 µM | OVCAR-4 22.8 µM | ACHN 35.2 µM | MOLT-4 20.2 µM | BT-549 25 µM

COc1ccc(C(=O)/C=C/c2ccc(OCC#N)cc2)cc1
inactive: MDA-N > 10 µM | COLO 205 21.7 µM | SNB-19 26.2 µM | HCT-116 12.2 µM | SR 22.7 µM | A549 28.5 µM | UO-31 16.6 µM | DU-145 30 µM | OVCAR-5 > 100 µM | K562 28.2 µM | T47D 14.9 µM | NCI-H23 21.3 µM | KM12 17.5 µM | PC-3 36.6 µM | HOP-92 29 µM | UACC-62 > 10 µM | OVCAR-4 32.7 µM | ACHN 36.1 µM | MOLT-4 23.3 µM | BT-549 17.5 µM

COc1ccc(C[C@H]2COC(=O)[C@@H]2Cc2cc(OC)c(OC)c(OC)c2)cc1OC
inactive: MDA-N 78.7 µM | COLO 205 > 100 µM | SNB-19 > 100 µM | HCT-116 > 87.9 µM | SR 5.9 µM | A549 > 100 µM | UO-31 43.6 µM | DU-145 > 100 µM | OVCAR-5 > 100 µM | K562 77.8 µM | T47D 17.9 µM | NCI-H23 99.3 µM | KM12 > 70.3 µM | PC-3 42 µM | HOP-92 16 µM | UACC-62 72.1 µM | OVCAR-4 > 61.7 µM | ACHN > 100 µM | MOLT-4 32.4 µM | BT-549 32 µM

c1ccc(C2SCc3nc4cc5ccccc5cc4n32)cc1 (stereo not given)
inactive: MDA-N > 100 µM | COLO 205 > 100 µM | SNB-19 > 100 µM | HCT-116 > 100 µM | SR > 100 µM | A549 > 100 µM | UO-31 > 100 µM | DU-145 > 100 µM | OVCAR-5 > 100 µM | K562 > 100 µM | T47D > 100 µM | NCI-H23 > 100 µM | KM12 > 100 µM | PC-3 > 100 µM | HOP-92 57.3 µM | UACC-62 > 100 µM | OVCAR-4 89.3 µM | ACHN > 100 µM | MOLT-4 > 100 µM | BT-549 > 100 µM

NS(=O)(=O)c1ccc(NC(=O)N/N=C/c2ccccc2O)cc1
inactive: MDA-N 22.1 µM | COLO 205 35.5 µM | SNB-19 38.6 µM | HCT-116 48.2 µM | SR 22.2 µM | A549 > 100 µM | UO-31 60.7 µM | DU-145 > 100 µM | OVCAR-5 > 100 µM | K562 40.8 µM | T47D 88.7 µM | NCI-H23 80.7 µM | KM12 33.7 µM | PC-3 > 100 µM | HOP-92 94.4 µM | UACC-62 60.4 µM | OVCAR-4 > 100 µM | ACHN > 100 µM | MOLT-4 37.7 µM | BT-549 43.8 µM

CCC(C)C(C(=O)N/N=C1/SCC(=O)N1c1ccccc1)C(=O)N/N=C1/SCC(=O)N1c1ccccc1 (stereo not given)
inactive: MDA-N 27.2 µM | COLO 205 > 100 µM | SNB-19 > 100 µM | HCT-116 23 µM | SR 40.6 µM | A549 > 100 µM | UO-31 > 100 µM | DU-145 43.5 µM | OVCAR-5 > 100 µM | K562 > 100 µM | T47D > 100 µM | NCI-H23 36.6 µM | KM12 27.5 µM | PC-3 > 100 µM | HOP-92 19 µM | UACC-62 20 µM | OVCAR-4 16.4 µM | ACHN > 100 µM | MOLT-4 36 µM | BT-549 > 100 µM
